Test results from patent US20100120730A1, “6-BENZYL-2,3,4,7-TETRAHYDRO-INDOLO [2,3-C] QUINOLINE COMPOUNDS USEFUL AS PDE5 INHIBITORS” (NYCOMED GmbH, priority 2007, published 2010).
Counter-ions that a name gives are not always drawn.

Assays:
human PDE5 = biological target: T1, human PDE5 (Homo sapiens, UniProt O76074); experiment: Inhibition of PDE5 activity (modified SPA test, human platelet lysate); format: biochemical; conditions: PDE5-containing human platelet lysate, 0.5 μM cGMP substrate, 37° C.
T1 construct: from tissue; host or cells: human platelets from fresh donor blood (10,000 g supernatant of sonified platelets)
Experimental: As a source for human PDE5, platelets were used. For that purpose, 150 ml fresh blood from human donors anticoagulated with citrate [final concentration 0.3% (w/v)] was centrifuged at 200 g for 10 min to obtain the so-called platelet-rich-plasma (PRP) as a supernatant. 1/10 volume of ACD solution (85 mM Na3-citrate, 111 mM D-glucose, 71 mM citric acid, pH 4.4) was added to 9/10 volume of PRP. After centrifugation (1,400 g, 10 min) the cell pellet was resuspended in 3 ml homogenization buffer (NaCl 140 mM, KCl 3.8 mM, EGTA 1 mM, MgCl2 1 mM, Tris-HCl 20 mM, beta-mercaptoethanol 1 mM, pH 8.2) plus protease-inhibitor mix giving rise to the final concentrations of 0.5 mM Pefablock (Roche), 10 μM Leupeptin, 5 μM Trypsininhibitor, 2 mM Benzamidin and 10 μM Pepstatin A. The suspension was sonified and thereafter centrifuged for 15 min at 10,000 g. The resulting supernatant (platelet lysate) was used for enzymatic testings.
PDE5A1 activity is inhibited by the compounds of the invention in a modified SPA (scintillation proximity assay) test, supplied by Amersham Biosciences (see procedural instructions “phosphodiesterase [3H]cAMP SPA enzyme assay, code TRKQ 7090”), carried out in 96-well microtitre plates (MTP's). The test volume is 100 μl and contains 20 mM Tris buffer (pH 7.4), 0.1 mg of BSA (bovine serum albumin)/ml, 5 mM Mg^2+, 1 μM motapizone, 10 nM PDE2 inhibitor BAY-60-7550, 0.5 μM cGMP (including about 50,000 cpm of [3H]cGMP as a tracer), 1 μl of the respective compound dilution in dimethylsulfoxide (DMSO) and sufficient PDE5-containing platelet lysat (10,000×g supernatant, see above) to ensure that 10-20 wt % of the cGMP is converted under the said experimental conditions. […] After a preincubation of 5 min at 37° C., the reaction was started by adding the substrate (cGMP) and the assay was incubated for a further 15 min; after that, it was stopped by adding SPA beads (50 μl). In accordance with the manufacturer's instructions, the SPA beads had previously been resuspended in water, but were then diluted 1:3 (v/v) in water; the diluted solution also contains 3 mM 8-methoxymethyl-3-isobutyl-1-methylxanthine (IBMX) to ensure a complete PDE activity stop. After the beads have been sedimented (>30 min), the MTP's are analyzed in commercially available luminescence detection devices. The corresponding IC50 values of the compounds for the inhibition of PDE activity are determined from the concentration-effect curves by means of non-linear regression.

| SMILES | melting point | IC50 (human PDE5) |
| --- | --- | --- |
| CC1(C)CC(=O)c2c(nc(Cc3ccc([N+](=O)[O-])cc3)c3[nH]c4ccccc4c23)C1 (as salt: HCl) [Example 8, 3,3-Dimethyl-6-(4-nitro-benzyl)-2,3,4,7-tetrahydro-indolo[2,3-c]quinolin-1-one, HCl salt] | 214 to 215 °C | – |
| CC1(C)Cc2nc(Cc3ccc4c(c3)OCO4)c3[nH]c4ccccc4c3c2C(O)C1 (stereo not drawn) (as salt: HCl) [Example 59, 6-Benzo[1,3]dioxol-5-ylmethyl-3,3-dimethyl-2,3,4,7-tetrahydro-1H-indolo[2,3-c]quinolin-1-ol] | 114 to 119 °C | – |
| CC1(C)CC(=O)c2c(nc(Cc3ccc4c(c3)OCO4)c3[nH]c4ccccc4c23)C1 [Example 7, 6-Benzo[1,3]dioxol-5-ylmethyl-3,3-dimethyl-2,3,4,7-tetrahydro-indolo[2,3-c]quinolin-1-one, HCl salt] | – | 3.89 nM |
| CC1(C)CC(=O)c2c(nc(Cc3ccc([N+](=O)[O-])cc3)c3[nH]c4ccccc4c23)C1 [Example 8, 3,3-Dimethyl-6-(4-nitro-benzyl)-2,3,4,7-tetrahydro-indolo[2,3-c]quinolin-1-one, HCl salt] | – | 81.3 nM |
| COc1cccc(Cc2nc3c(c4c2[nH]c2ccccc24)C(=O)CC(C)(C)C3)c1 [Example 10, 6-(3-Methoxy-benzyl)-3,3-dimethyl-2,3,4,7-tetrahydro-indolo[2,3-c]quinolin-1-one] | – | 79.4 nM |
| CC1(C)CC(=O)c2c(nc(Cc3cccc([N+](=O)[O-])c3)c3[nH]c4ccccc4c23)C1 [Example 13, 3,3-Dimethyl-6-(3-nitro-benzyl)-2,3,4,7-tetrahydro-indolo[2,3-c]quinolin-1-one] | – | 135 nM |
| CC1(C)CC(=O)c2c(nc(Cc3ccc([N+](=O)[O-])cc3)c3[nH]c4ccccc4c23)C1 [Example 16, 3,3-Dimethyl-6-(4-nitro-benzyl)-2,3,4,7-tetrahydro-indolo[2,3-c]quinolin-1-one] | 164 to 166 °C | – |
| CCC(=O)Nc1ccc(Cc2nc3c(c4c2[nH]c2ccccc24)C(=O)CC(C)(C)C3)cc1 [Example 45, N-[4-(3,3-Dimethyl-1-oxo-2,3,4,7-tetrahydro-1H-indolo[2,3-c]quinolin-6-ylmethyl)-phenyl]-propionamide] | – | 34.7 nM |
| CC1(C)Cc2nc(Cc3ccc4c(c3)OCO4)c3[nH]c4ccccc4c3c2C(O)C1 (stereo not drawn) [Example 59, 6-Benzo[1,3]dioxol-5-ylmethyl-3,3-dimethyl-2,3,4,7-tetrahydro-1H-indolo[2,3-c]quinolin-1-ol] | – | 2.69 nM |
| COc1ccc(Cc2nc3c(c4c2[nH]c2ccccc24)C(O)CC(C)(C)C3)c(F)c1 (stereo not drawn) [Example 65, 6-(2-Fluoro-4-methoxy-benzyl)-3,3-dimethyl-2,3,4,7-tetrahydro-1H-indolo[2,3-c]quinolin-1-ol] | – | 1.12 nM |
| COc1ccc(Cc2nc3c(c4c2[nH]c2ccccc24)C(O)CC(C)(C)C3)cc1F (stereo not drawn) [Example 68, 6-(3-Fluoro-4-methoxy-benzyl)-3,3-dimethyl-2,3,4,7-tetrahydro-1H-indolo[2,3-c]quinolin-1-ol] | – | 1.58 nM |
| CC1(C)CC(=O)c2c(nc(Cc3ccc(NC(N)=O)cc3)c3[nH]c4ccccc4c23)C1 [Example 75, [4-(3,3-Dimethyl-1-oxo-2,3,4,7-tetrahydro-1H-indolo[2,3-c]quinolin-6-ylmethyl)-phenyl]-urea] | – | 10.5 nM |
| CC1(C)Cc2nc(Cc3ccc(O)c(F)c3)c3[nH]c4ccccc4c3c2[C@H](O)C1 [Example 87, (R)-6-(3-Fluoro-4-hydroxy-benzyl)-3,3-dimethyl-2,3,4,7-tetrahydro-1H-indolo[2,3-c]quinolin-1-ol] | 232 to 234 °C | – |
| CC1(C)Cc2nc(Cc3ccc(O)c(F)c3)c3[nH]c4ccccc4c3c2[C@@H](O)C1 [Example 88, (S)-6-(3-Fluoro-4-hydroxy-benzyl)-3,3-dimethyl-2,3,4,7-tetrahydro-1H-indolo[2,3-c]quinolin-1-ol] | 233 to 234 °C | – |
| COc1c(F)cc(Cc2nc3c(c4c2[nH]c2ccccc24)[C@@H](O)CC(C)(C)C3)cc1F [Example 89, (S)-6-(3,5-Difluoro-4-methoxy-benzyl)-3,3-dimethyl-2,3,4,7-tetrahydro-1H-indolo[2,3-c]quinolin-1-ol] | 161 to 162 °C | – |
| COc1c(F)cc(Cc2nc3c(c4c2[nH]c2ccccc24)[C@H](O)CC(C)(C)C3)cc1F [Example 90, (R)-6-(3,5-Difluoro-4-methoxy-benzyl)-3,3-dimethyl-2,3,4,7-tetrahydro-1H-indolo[2,3-c]quinolin-1-ol] | 161 to 162 °C | – |
| COc1ccc(Cc2nc3c(c4c2[nH]c2ccccc24)[C@@H](OC(=O)[C@@H]2CCC(=O)N2)CC(C)(C)C3)cc1F [Example 98, (S)-6-(3-Fluoro-4-methoxy-benzyl)-3,3-dimethyl-2,3,4,7-tetrahydro-1H-indolo[2,3-c]quinolin-1-ol pyroglutamate] | 185 to 187 °C | – |

The remaining lines, values ahead:

| melting point | IC50 (human PDE5) | SMILES |
| --- | --- | --- |
| 244 to 245 °C | – | CC1(C)CC(=O)c2c(nc(Cc3ccc(Br)cc3)c3[nH]c4ccccc4c23)C1 (as salt: HCl) [Example 5, 6-(4-Bromo-benzyl)-3,3-dimethyl-2,3,4,7-tetrahydro-indolo[2,3-c]quinolin-1-one, HCl salt] |
| 311 to 312 °C | – | Brc1ccc(Cc2nc3c(c4c2[nH]c2ccccc24)CCCC3)cc1 (as salt: HCl) [Example 9, 6-(4-Bromo-benzyl)-2,3,4,7-tetrahydro-1H-indolo[2,3-c]quinoline, HCl salt] |
| – | 3.02 nM | COc1ccc(Cc2nc3c(c4c2[nH]c2ccccc24)C(=O)CC(C)(C)C3)cc1 [Example 1, 6-(4-Methoxy-benzyl)-3,3-dimethyl-2,3,4,7-tetrahydro-indolo[2,3-c]quinolin-1-one] |
| 177 °C | 6.31 nM | COc1ccc(Cc2nc3c(c4c2[nH]c2ccccc24)C(=O)CCC3)cc1 [Example 2, 6-(4-Methoxy-benzyl)-2,3,4,7-tetrahydro-indolo[2,3-c]quinolin-1-one] |
| 205 °C | 19.5 nM | O=C1CCCc2nc(Cc3ccccc3)c3[nH]c4ccccc4c3c21 [Example 3, 6-Benzyl-2,3,4,7-tetrahydro-indolo[2,3-c]quinolin-1-one] |
| – | 10.7 nM | CC1(C)CC(=O)c2c(nc(Cc3ccc(Br)cc3)c3[nH]c4ccccc4c23)C1 [Example 5, 6-(4-Bromo-benzyl)-3,3-dimethyl-2,3,4,7-tetrahydro-indolo[2,3-c]quinolin-1-one, HCl salt] |
| – | 12.6 nM | COc1ccc(Cc2nc3c(c4c2[nH]c2ccccc24)CCCC3)cc1 [Example 6, 6-(4-Methoxy-benzyl)-2,3,4,7-tetrahydro-1H-indolo[2,3-c]quinoline, HCl salt] |
| – | 22.9 nM | Brc1ccc(Cc2nc3c(c4c2[nH]c2ccccc24)CCCC3)cc1 [Example 9, 6-(4-Bromo-benzyl)-2,3,4,7-tetrahydro-1H-indolo[2,3-c]quinoline, HCl salt] |
| – | 288 nM | O=C1CCCc2nc(Cc3cccc([N+](=O)[O-])c3)c3[nH]c4ccccc4c3c21 [Example 19, 6-(3-Nitro-benzyl)-2,3,4,7-tetrahydro-indolo[2,3-c]quinolin-1-one] |
| – | 1.91 nM | CC1(C)CC(=O)c2c(nc(Cc3ccc(O)cc3)c3[nH]c4ccccc4c23)C1 [Example 39, 6-(4-Hydroxy-benzyl)-3,3-dimethyl-2,3,4,7-tetrahydro-indolo[2,3-c]quinolin-1-one] |
| – | 25.7 nM | Nc1ccc(Cc2nc3c(c4c2[nH]c2ccccc24)C(=O)CCC3)cc1 [Example 42, 6-(4-Amino-benzyl)-2,3,4,7-tetrahydro-indolo[2,3-c]quinolin-1-one] |
| – | 11.5 nM | Nc1cccc(Cc2nc3c(c4c2[nH]c2ccccc24)C(=O)CCC3)c1 [Example 43, 6-(3-Amino-benzyl)-2,3,4,7-tetrahydro-indolo[2,3-c]quinolin-1-one] |
| – | 67.6 nM | CC(=O)Nc1ccc(Cc2nc3c(c4c2[nH]c2ccccc24)C(=O)CCC3)cc1 [Example 46, N-[4-(1-Oxo-2,3,4,7-tetrahydro-1H-indolo[2,3-c]quinolin-6-ylmethyl)-phenyl]-acetamide] |
| – | 49 nM | Nc1cccc(Cc2nc3c(c4c2[nH]c2ccccc24)C(O)CCC3)c1 (stereo not drawn) [Example 72, 6-(3-Amino-benzyl)-2,3,4,7-tetrahydro-1H-indolo[2,3-c]quinolin-1-ol] |
